Experiment [1] addresses T1, Protein O-GlcNAcase (Homo sapiens) (UniProt O60502).
T1 sequence (whole entry): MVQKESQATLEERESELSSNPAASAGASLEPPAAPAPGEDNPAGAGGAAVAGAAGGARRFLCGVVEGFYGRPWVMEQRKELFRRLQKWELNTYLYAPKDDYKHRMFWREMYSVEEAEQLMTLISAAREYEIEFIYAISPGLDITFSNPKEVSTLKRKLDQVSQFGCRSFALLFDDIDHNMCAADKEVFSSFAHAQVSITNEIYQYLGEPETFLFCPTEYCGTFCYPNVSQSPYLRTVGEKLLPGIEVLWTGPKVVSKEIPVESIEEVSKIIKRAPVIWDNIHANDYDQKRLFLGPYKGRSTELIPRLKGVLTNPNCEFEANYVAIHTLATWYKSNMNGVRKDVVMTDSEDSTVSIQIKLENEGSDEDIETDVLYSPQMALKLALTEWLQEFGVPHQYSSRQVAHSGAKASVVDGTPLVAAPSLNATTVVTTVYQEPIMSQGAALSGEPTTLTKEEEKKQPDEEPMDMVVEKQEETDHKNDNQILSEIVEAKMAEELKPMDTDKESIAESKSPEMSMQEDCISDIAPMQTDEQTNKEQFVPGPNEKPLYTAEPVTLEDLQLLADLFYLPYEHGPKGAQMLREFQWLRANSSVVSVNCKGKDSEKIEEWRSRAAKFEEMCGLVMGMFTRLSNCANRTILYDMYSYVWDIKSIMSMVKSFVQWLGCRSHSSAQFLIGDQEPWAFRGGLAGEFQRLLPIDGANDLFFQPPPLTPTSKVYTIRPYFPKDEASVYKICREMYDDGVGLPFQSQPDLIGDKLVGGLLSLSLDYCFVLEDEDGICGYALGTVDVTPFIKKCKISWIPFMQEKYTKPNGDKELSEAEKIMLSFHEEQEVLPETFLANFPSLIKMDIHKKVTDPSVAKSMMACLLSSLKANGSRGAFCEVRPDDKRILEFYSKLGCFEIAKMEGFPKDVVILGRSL
In words: Inhibition of recombinant human OGA expressed in Escherichia coli BL21 (DE3) at 20 uM using 4-Mu-GlcNAc as substrate preincubated for 10 mins followed by substrate addition and measured after 30 mins by fluorescence assay relative to control.

Experiment [2] deals with T2, Beta-hexosaminidase subunit beta (Homo sapiens) (UniProt P07686).
T2 sequence (whole entry): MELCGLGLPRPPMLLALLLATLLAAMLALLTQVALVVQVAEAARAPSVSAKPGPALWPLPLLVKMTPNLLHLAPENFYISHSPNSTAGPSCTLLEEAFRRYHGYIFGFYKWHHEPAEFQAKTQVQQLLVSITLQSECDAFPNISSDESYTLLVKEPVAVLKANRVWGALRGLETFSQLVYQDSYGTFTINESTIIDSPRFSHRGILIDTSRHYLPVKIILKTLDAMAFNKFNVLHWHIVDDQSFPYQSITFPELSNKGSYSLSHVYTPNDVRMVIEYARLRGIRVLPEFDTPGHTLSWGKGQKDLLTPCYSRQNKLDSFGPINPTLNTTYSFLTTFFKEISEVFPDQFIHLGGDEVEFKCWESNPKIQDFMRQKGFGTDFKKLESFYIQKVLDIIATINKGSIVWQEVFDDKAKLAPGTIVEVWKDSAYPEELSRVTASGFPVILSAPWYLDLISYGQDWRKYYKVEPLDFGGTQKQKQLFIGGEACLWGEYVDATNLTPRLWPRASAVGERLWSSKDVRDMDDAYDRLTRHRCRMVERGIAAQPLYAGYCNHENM
The experiment can be described thus: Inhibition of recombinant human His6-tagged HexB expressed in Pichia pastoris at 20 uM using 4-Mu-GlcNAc as substrate preincubated for 10 mins followed by substrate addition and measured after 30 mins by fluorescence assay relative to control.

The target in a further experiment is T3, Protein O-GlcNAcase (Homo sapiens, UniProt O60502).
T3 sequence (O60502 whole entry): T1 sequence (whole entry)
In words: Inhibition of recombinant human OGA expressed in Escherichia coli BL21 (DE3) using varying levels of 4-Mu-GlcNAc as substrate preincubated for 10 mins followed by substrate addition and measured after 30 mins by dixon plot analysis.

Experiment [3] addresses T4, Beta-hexosaminidase subunit beta (Homo sapiens, UniProt P07686).
T4 sequence (P07686 whole entry): T2 sequence (whole entry)
The experiment can be described thus: Inhibition of recombinant human His6-tagged HexB expressed in Pichia pastoris using varying levels of 4-Mu-GlcNAc as substrate preincubated for 10 mins followed by substrate addition and measured after 30 mins by dixon plot analysis.

A further experiment is filed under the species Homo sapiens. The experiment can be described thus: Selectivity ratio of Ki for recombinant human His6-tagged HexB expressed in Pichia pastoris to Ki for recombinant human OGA expressed in Escherichia coli BL21 (DE3).
The target in experiment [4] is T2, Beta-hexosaminidase subunit beta (Homo sapiens). The experiment can be described thus: Inhibition of recombinant human His6-tagged HexB expressed in Pichia pastoris at 100 uM using varying levels of 4-Mu-GlcNAc as substrate preincubated for 10 mins followed by substrate addition and measured after 30 mins by dixon plot analysis relative to control.
Experiment [5] can be described thus: Inhibition of Ostrinia furnacalis beta-N-acetylhexosaminidase using pNP-beta-GlcNAc as substrate by dixon plot analysis.
For experiment [6], the target named is Beta-hexosaminidase (Homo sapiens). The experiment can be described thus: Inhibition of human beta-N-acetylhexosaminidase using pNP-beta-GlcNAc as substrate by dixon plot analysis.

The values that follow come from ChEMBL document CHEMBL4325931, “Modification of the Thioglycosyl-Naphthalimides as Potent and Selective Human O-GlcNAcase Inhibitors” (ACS Med Chem Lett, 2018).

As to `CC(=O)N[C@@H]1[C@@H](O)[C@H](O)[C@@H](CO)O[C@H]1SCCNCCN1C(=O)c2cccc3c([N+](=O)[O-])ccc(c23)C1=O`, the inhibition (usually the drop in the measured response relative to a control, in per cent) in experiment [1] was found to be 25.1%; in experiment [2], 13.8%.

As to `COc1ccc2c3c(cccc13)C(=O)N(CCNCCS[C@@H]1O[C@H](CO)[C@@H](O)[C@H](O)[C@H]1NC(C)=O)C2=O`, the inhibition in experiment [1] was 56.4%; in experiment [2], 22.5%. The Ki (usually the dissociation constant of the complex between target and ligand, obtained from inhibition or displacement) is 6700 nM on Protein O-GlcNAcase and 56200 nM in experiment [3]. The Ratio Ki in the experiment filed under Homo sapiens was determined as 8.4.

`CC(=O)N[C@@H]1[C@@H](O)[C@H](O)[C@@H](CO)O[C@H]1SCCNCCCN1C(=O)c2cccc3c(Br)ccc(c23)C1=O`: the inhibition in experiment [1] was found to be 84.7%; in experiment [2] it was 70.5%. The values for the Ki (on Protein O-GlcNAcase; in experiment [3]) were 900 nM and 1800 nM, respectively. Also, the Ratio Ki in the experiment filed under Homo sapiens was found to be 2.

Regarding `CC(=O)N[C@@H]1[C@@H](O)[C@H](O)[C@@H](CO)O[C@H]1SCCCNCCN1C(=O)c2cccc3c(N4CCCCC4)ccc(c23)C1=O`, the values for the inhibition in experiment [1], in experiment [2] and in experiment [4] were 67.5%, 0% and under 50%, respectively. For the same compound, the inhibition constant (Ki) on Protein O-GlcNAcase was 3200 nM. Further, in the experiment listed under Homo sapiens, the Ratio Ki was over 31.2.

For `CC(=O)N[C@@H]1[C@@H](O)[C@H](O)[C@@H](CO)O[C@H]1SCCCNCCCN1C(=O)c2cccc3c([N+](=O)[O-])ccc(c23)C1=O`, the values for the inhibition in experiment [1] and in experiment [2] were 20% and 0%, respectively.

`Cc1nnc(CNCCN2C(=O)c3cccc4cccc(c34)C2=O)s1`: the figures for the Ki in experiment [5] and in experiment [6] were 4300 nM and 2200 nM, respectively.

For the compound `CC(=O)N[C@@H]1[C@@H](O)[C@H](O)[C@@H](CO)O[C@H]1SCCCNCCCN1C(=O)c2cccc3c(N4CCCCC4)ccc(c23)C1=O`, the figures for the inhibition in experiment [1] and in experiment [2] were 49.1% and 0%, respectively.

As to `CC(=O)N[C@@H]1[C@@H](O)[C@H](O)[C@@H](CO)O[C@H]1SCCNCCN1C(=O)c2cccc3c(Cl)ccc(c23)C1=O`, the inhibition amounted to 66.1% in experiment [1] and 73.8% in experiment [2]. Moreover, the Ki at Protein O-GlcNAcase is 2000 nM; in experiment [3], 1200 nM. The Ratio Ki in the experiment filed under Homo sapiens stood at 0.6.

Turning to `CC(=O)N[C@@H]1[C@@H](O)[C@H](O)[C@@H](CO)O[C@H]1SCCNCCCN1C(=O)c2cccc3c(N(C)C)ccc(c23)C1=O`, the results for the inhibition in experiment [1] and in experiment [2] were 40.9% and 0%, respectively.

Turning to `CC(=O)N[C@@H]1[C@@H](O)[C@H](O)[C@@H](CO)O[C@H]1SCCCNCCCN1C(=O)c2cccc3c(Br)ccc(c23)C1=O`, the inhibition amounted to 59.2% in experiment [1] and 65% in experiment [2]. Moreover, the inhibition constant (Ki) at Protein O-GlcNAcase is 2200 nM; in experiment [3], 4400 nM. The Ratio Ki in the experiment listed under Homo sapiens is 2.

Turning to `CC(=O)N[C@@H]1[C@@H](O)[C@H](O)[C@@H](CO)O[C@H]1SCCNCCCN1C(=O)c2cccc3c(N4CCCCC4)ccc(c23)C1=O`, the inhibition was 87.6% in experiment [1], 0% in experiment [2] and under 50% in experiment [4]. For the same compound, the Ki on Protein O-GlcNAcase came out at 600 nM. Besides, in the experiment filed under Homo sapiens, the Ratio Ki is over 167.

For `CC(=O)N[C@@H]1[C@@H](O)[C@H](O)[C@@H](CO)O[C@H]1SCCCNCCN1C(=O)c2cccc3c([N+](=O)[O-])ccc(c23)C1=O`, the inhibition in experiment [1] was 25.6%; in experiment [2], 0%.

For the compound `CC(=O)N[C@@H]1[C@@H](O)[C@H](O)[C@@H](CO)O[C@H]1SCCNCCN1C(=O)c2cccc3c(Br)ccc(c23)C1=O`, the inhibition in experiment [1] is 73.2%; in experiment [2], 73.3%. For the same compound, the Ki at Protein O-GlcNAcase worked out at 1200 nM; in experiment [3], 2600 nM. In addition, in the experiment listed under Homo sapiens, the Ratio Ki is 2.2.

As to `CC(=O)N[C@@H]1[C@@H](O)[C@H](O)[C@@H](CO)O[C@H]1SCCNCCCN1C(=O)c2cccc3c(Cl)ccc(c23)C1=O`, the inhibition in experiment [1] turned out to be 83.3%; in experiment [2], 70.8%. Also, the Ki at Protein O-GlcNAcase was 800 nM; in experiment [3] it was 1600 nM. Moreover, the Ratio Ki in the experiment filed under Homo sapiens was determined as 2.

Take `COc1ccc2c3c(cccc13)C(=O)N(CCCNCCCS[C@@H]1O[C@H](CO)[C@@H](O)[C@H](O)[C@H]1NC(C)=O)C2=O`: the figures for the inhibition in experiment [1] and in experiment [2] were 68% and 45.2%, respectively. The inhibition constant (Ki) on Protein O-GlcNAcase amounted to 15900 nM; in experiment [3] it was 24700 nM. Further, the Ratio Ki in the experiment filed under Homo sapiens came out at 1.6.

Regarding `CC(=O)N[C@@H]1[C@@H](O)[C@H](O)[C@@H](CO)O[C@H]1SCCCNCCCN1C(=O)c2cccc3c(N(C)C)ccc(c23)C1=O`, the inhibition in experiment [1] amounted to 28.2%; in experiment [2], 0%.

As to `CC(=O)N[C@@H]1[C@@H](O)[C@H](O)[C@@H](CO)O[C@H]1SCCCNCCCN1C(=O)c2cccc3c(Cl)ccc(c23)C1=O`, the inhibition in experiment [1] amounted to 68.9%; in experiment [2], 74.3%. For the same compound, the Ki at Protein O-GlcNAcase amounted to 2100 nM; in experiment [3], 1800 nM. Moreover, the Ratio Ki in the experiment filed under Homo sapiens was found to be 0.9.

For `COc1ccc2c3c(cccc13)C(=O)N(CCCNCCS[C@@H]1O[C@H](CO)[C@@H](O)[C@H](O)[C@H]1NC(C)=O)C2=O`, the inhibition in experiment [1] came to 73.1%; in experiment [2], 47.9%. For the same compound, the inhibition constant Ki at Protein O-GlcNAcase was found to be 1600 nM; in experiment [3], 22100 nM. The Ratio Ki in the experiment listed under Homo sapiens amounted to 13.8.

On to `COc1ccc2c3c(cccc13)C(=O)N(CCNCCCS[C@@H]1O[C@H](CO)[C@@H](O)[C@H](O)[C@H]1NC(C)=O)C2=O`, for which the inhibition was 34.3% in experiment [1] and 39% in experiment [2].

Regarding `CC(=O)N[C@@H]1[C@@H](O)[C@H](O)[C@@H](CO)O[C@H]1SCCNCCN1C(=O)c2cccc3c(N4CCCCC4)ccc(c23)C1=O`, the inhibition in experiment [1] turned out to be 36.7%; in experiment [2] it was 0%.

With `CC(=O)N[C@@H]1[C@@H](O)[C@H](O)[C@@H](CO)O[C@H]1SCCCNCCN1C(=O)c2cccc3c(Cl)ccc(c23)C1=O`, the inhibition came out at 83.6% in experiment [1] and 75.2% in experiment [2]. The inhibition constant Ki turned out to be 700 nM on Protein O-GlcNAcase and 1600 nM in experiment [3]. Also, the Ratio Ki in the experiment listed under Homo sapiens is 2.3.

Consider `CC(=O)N[C@@H]1[C@@H](O)[C@H](O)[C@@H](CO)O[C@H]1SCCCNCCN1C(=O)c2cccc3c(Br)ccc(c23)C1=O`, for which the inhibition in experiment [1] came to 75.7%; in experiment [2], 60.6%. Also, the results for the Ki (at Protein O-GlcNAcase; in experiment [3]) were 3500 nM and 5100 nM, respectively. In the experiment listed under Homo sapiens, the Ratio Ki worked out at 1.5.

`CC(=O)N[C@@H]1[C@@H](O)[C@H](O)[C@@H](CO)O[C@H]1SCCCNCCN1C(=O)c2cccc3c(N(C)C)ccc(c23)C1=O`: the inhibition stood at 26.6% in experiment [1] and 0% in experiment [2].

For `CC(=O)N[C@@H]1[C@@H](O)[C@H](O)[C@@H](CO)O[C@H]1SCCNCCCN1C(=O)c2cccc3c([N+](=O)[O-])ccc(c23)C1=O`, the inhibition in experiment [1] is 55%; in experiment [2], 8%; in experiment [4], under 50%. Besides, the Ki on Protein O-GlcNAcase was 8300 nM. The Ratio Ki in the experiment filed under Homo sapiens is over 12.

In the case of `Cc1nnc(CNCCN2C(=O)c3cccc4c(N(C)C)ccc(c34)C2=O)s1`, the Ki in experiment [5] is 300 nM; in experiment [6], over 100000 nM.
